Experimental data taken from the NIST ThermoML archive (doi:10.1021/je0601457).

Experiment: xn = mol fraction of the nth substance listed
Conditions: linear displacement

CC(=O)c1cnccn1 [2-acetylpyrazine] + O=C=O
Conditions	mass density [kg/m3]
294.75 K, Liquid, x1 = 0.007	799
296.15 K, Liquid, x1 = 0.025	758
302.35 K, Liquid, x1 = 0.025	790
302.35 K, Liquid, x1 = 0.054	922
303.35 K, Liquid, x1 = 0.007	724
306.25 K, Liquid, x1 = 0.081	946
309.45 K, Liquid, x1 = 0.138	1276
310.35 K, Liquid, x1 = 0.054	837
311.05 K, Liquid, x1 = 0.161	938
312.75 K, Gas, x1 = 0.007	601
312.95 K, Liquid, x1 = 0.114	1092
313.15 K, Liquid, x1 = 0.194	954
313.65 K, Gas, x1 = 0.081	911
314.35 K, Liquid, x1 = 0.138	1258
314.45 K, Gas, x1 = 0.025	815
321.25 K, Gas, x1 = 0.054	785
321.45 K, Liquid, x1 = 0.161	918
321.95 K, Liquid, x1 = 0.194	939
322.05 K, Liquid, x1 = 0.295	1090
322.25 K, Liquid, x1 = 0.138	1238
323.05 K, Liquid, x1 = 0.114	1061
332.55 K, Liquid, x1 = 0.448	1063
332.75 K, Liquid, x1 = 0.138	1216
332.85 K, Gas, x1 = 0.054	739
333.45 K, Liquid, x1 = 0.194	920
333.45 K, Liquid, x1 = 0.295	1014
334.45 K, Gas, x1 = 0.081	856
334.95 K, Liquid, x1 = 0.114	1023
337.95 K, Liquid, x1 = 0.161	887
340.45 K, Gas, x1 = 0.025	718
343.75 K, Liquid, x1 = 0.295	998
345.75 K, Liquid, x1 = 0.138	1187
346.35 K, Liquid, x1 = 0.944	1013
348.05 K, Liquid, x1 = 0.448	1037
348.55 K, Liquid, x1 = 0.114	993
348.75 K, Gas, x1 = 0.054	702
351.15 K, Liquid, x1 = 0.194	892
353.55 K, Gas, x1 = 0.081	807
353.75 K, Liquid, x1 = 0.161	863
356.05 K, Liquid, x1 = 0.295	979
360.95 K, Liquid, x1 = 0.944	996
363.05 K, Liquid, x1 = 0.138	1148
364.85 K, Liquid, x1 = 0.114	945
366.25 K, Liquid, x1 = 0.448	1007
367.85 K, Liquid, x1 = 0.194	861
368.75 K, Liquid, x1 = 0.295	956
368.85 K, Gas, x1 = 0.025	628
369.55 K, Gas, x1 = 0.081	772
370.85 K, Liquid, x1 = 0.161	832
371.05 K, Liquid, x1 = 0.944	992
371.25 K, Gas, x1 = 0.054	648
